Source: US8796310B2, “Amino-pyridine-containing spleen tyrosine kinase (SYK) inhibitors” (Merck Sharp & Dohme Corp., priority 2011, dated 2014)
Structures can show the parent of a compound that is named as a salt.

Legend:
[1] = target: recombinant human GST-Syk (Homo sapiens (Human), UniProt P43405); assay: Homogeneous Time-Resolved Fluorescence (HTRF) assay for the recombinant human Syk enzyme; assay type: biochemical; conditions: GST-hSyk 5 pM, ATP 25 μM, 10-dose titration 10 μM to 0.508 nM; values below lowest test concentration given as <0.50
Protocol: Biological Assay Homogeneous Time-Resolved Fluorescence (HTRF) Assay for the Recombinant Human Syk Enzyme
A recombinant GST-hSyk fusion protein was used to measure potency of compounds to inhibit human Syk activity. […] Final volume of the reaction was 10 μL. Phosphorylation of the peptide was allowed to proceed for 45′ at rt. To quench the reaction and detect the phosphorylated product, 2 nM of a Europium-anti-phosphotyrosine antibody (Perkin Elmer #AD0161) and 70 nM SA-APC (Perkin-Elmer #CR130-100) were added together in 15 mM Tris pH 7.5, 40 mM EDTA, 0.01% tween 20. Final volume of the quenching solution was 10 μL. The resulting HTRF signal was measured after 30 minutes on a EnVision (Perkin-Elmer) reader using a time-resolved fluorescence protocol.

PGD2 = conditions: dosed intranasally, phase I/II study, allergic rhinitis; cited from earlier work
[2] = phase II clinical trial, allergic rhinitis; cited from earlier work

SMILES: Cc1cc(Nc2cc(C(F)(F)F)ccn2)nc(-c2cnc(C3(O)CCCCc4c(C(=O)O)cccc43)s2)c1 (single isomer, unassigned) [Example 15G, (R or S)-5-hydroxy-5-[5-(4-methyl-6-{[4-(trifluoromethyl)pyridin-2-yl]amino}pyridin-2-yl)-1,3-thiazol-2-yl]-6,7,8,9-tetrahydro-5H-benzo[7]annulene-1-carboxylic acid]
- IC50 [1]: < 500 pM

SMILES: Cc1cc(Nc2cc(C(F)(F)F)ccn2)nc(-c2cnc(C3(O)CCCCc4c(C(=O)O)cccc43)s2)c1 (single isomer, unassigned) [Example 15H, (R or S)-5-hydroxy-5-[5-(4-methyl-6-{[4-(trifluoromethyl)pyridin-2-yl]amino}pyridin-2-yl)-1,3-thiazol-2-yl]-6,7,8,9-tetrahydro-5H-benzo[7]annulene-1-carboxylic acid]
- IC50 [1]: < 500 pM

SMILES: Cc1cc(Nc2cc(OC(C)(C)C)ccn2)nc(-c2cnc([C@@]3(O)CCCc4cc(C(=O)O)ccc43)s2)c1 [Example 1, (R)-5-(5-{6-[(4-Tert-butoxypyridin-2-yl)amino]-4-methylpyridin-2-yl}-1,3-thiazol-2-yl)-5-hydroxy-5,6,7,8-tetrahydronaphthalene-2-carboxylic acid, ammonia salt]
- IC50 [1]: < 500 pM

SMILES: Cc1cc(Nc2cc(C(F)F)ccn2)nc(-c2cnc(C3(O)CCCc4cc(C(=O)O)ccc43)s2)c1 (stereo not drawn) [Example 1A, 5-[5-(6-{[4-(difluoromethyl)pyridin-2-yl]amino}-4-methylpyridin-2-yl)-1,3-thiazol-2-yl]-5-hydroxy-5,6,7,8-tetrahydronaphthalene-2-carboxylic acid]
- IC50 [1]: < 500 pM

SMILES: Cc1cc(Nc2cc(N3CCN(CCN)CC3)ccn2)nc(-c2cnc(C3(O)CCCc4cc(C(=O)O)ccc43)s2)c1 (stereo not drawn) [Example 1C, 5-{5-[6-({4-[4-(2-aminoethyl)piperazin-1-yl]pyridin-2-yl}amino)-4-methylpyridin-2-yl]-1,3-thiazol-2-yl}-5-hydroxy-5,6,7,8-tetrahydronaphthalene-2-carboxylic acid]
- IC50 [1]: < 500 pM

SMILES: Cc1cc(Nc2cc(N3CCNCC3)ccn2)nc(-c2cnc(C3(O)CCCc4cc(C(=O)O)ccc43)s2)c1 (stereo not drawn) [Example 1D, 5-hydroxy-5-[5-(4-methyl-6-{[4-(piperazin-1-yl)pyridin-2-yl]amino}pyridin-2-yl)-1,3-thiazol-2-yl]-5,6,7,8-tetrahydronaphthalene-2-carboxylic acid]
- IC50 [1]: < 500 pM

SMILES: Cc1cc(Nc2cc(-n3cc(C)cn3)ccn2)nc(-c2cnc(C3(O)CCCc4cc(C(=O)O)ccc43)s2)c1 (stereo not drawn) [Example 1E, 5-hydroxy-5-[5-(4-methyl-6-{[4-(4-methyl-1H-pyrazol-1-yl)pyridin-2-yl]amino}pyridin-2-yl)-1,3-thiazol-2-yl]-5,6,7,8-tetrahydronaphthalene-2-carboxylic acid]
- IC50 [1]: < 500 pM

SMILES: Cc1cc(Nc2cc(-n3cccn3)ccn2)nc(-c2cnc(C3(O)CCCc4cc(C(=O)O)ccc43)s2)c1 (stereo not drawn) [Example 1F, 5-hydroxy-5-[5-(4-methyl-6-{[4-(1H-pyrazol-1-yl)pyridin-2-yl]amino}pyridin-2-yl)-1,3-thiazol-2-yl]-5,6,7,8-tetrahydronaphthalene-2-carboxylic acid]
- IC50 [1]: < 500 pM

SMILES: Cc1ccnc(Nc2cc(C)cc(-c3cnc(C4(O)CCCc5cc(C(=O)O)ccc54)s3)n2)c1 (stereo not drawn) [Example 1H, 5-hydroxy-5-(5-{4-methyl-6-[(4-methylpyridin-2-yl)amino]pyridin-2-yl}-1,3-thiazol-2-yl)-5,6,7,8-tetrahydronaphthalene-2-carboxylic acid]
- IC50 [1]: < 500 pM

SMILES: Cc1cc(Nc2cc(-n3ccc(C)n3)ccn2)nc(-c2cnc(C3(O)CCCc4cc(C(=O)O)ccc43)s2)c1 (stereo not drawn) [Example 1J, 5-hydroxy-5-[5-(4-methyl-6-{[4-(3-methyl-1H-pyrazol-1-yl)pyridin-2-yl]amino}pyridin-2-yl)-1,3-thiazol-2-yl]-5,6,7,8-tetrahydronaphthalene-2-carboxylic acid]
- IC50 [1]: < 500 pM

SMILES: Cc1cc(Nc2cc(C3CCC3)ccn2)nc(-c2cnc(C3(O)CCCc4cc(C(=O)O)ccc43)s2)c1 (stereo not drawn) [Example 1K, 5-(5-{6-[(4-cyclobutylpyridin-2-yl)amino]-4-methylpyridin-2-yl}-1,3-thiazol-2-yl)-5-hydroxy-5,6,7,8-tetrahydronaphthalene-2-carboxylic acid]
- IC50 [1]: < 500 pM

SMILES: CCCc1ccnc(Nc2cc(C)cc(-c3cnc(C4(O)CCCc5cc(C(=O)O)ccc54)s3)n2)c1 (stereo not drawn) [Example 1M, 5-hydroxy-5-(5-{4-methyl-6-[(4-propylpyridin-2-yl)amino]pyridin-2-yl}-1,3-thiazol-2-yl)-5,6,7,8-tetrahydronaphthalene-2-carboxylic acid]
- IC50 [1]: < 500 pM

SMILES: CCOc1ccnc(Nc2cc(C)cc(-c3cnc(C4(O)CCCc5cc(C(=O)O)ccc54)s3)n2)c1 (stereo not drawn) [Example 1N, 5-(5-{6-[(4-ethoxypyridin-2-yl)amino]-4-methylpyridin-2-yl}-1,3-thiazol-2-yl)-5-hydroxy-5,6,7,8-tetrahydronaphthalene-2-carboxylic acid]
- IC50 [1]: < 500 pM

SMILES: CCc1ccnc(Nc2cc(C)cc(-c3cnc(C4(O)CCCc5cc(C(=O)O)ccc54)s3)n2)c1 (stereo not drawn) [Example 1P, 5-(5-{6-[(4-ethylpyridin-2-yl)amino]-4-methylpyridin-2-yl}-1,3-thiazol-2-yl)-5-hydroxy-5,6,7,8-tetrahydronaphthalene-2-carboxylic acid]
- IC50 [1]: < 500 pM

SMILES: Cc1cc(Nc2cc(OC(C)C)ccn2)nc(-c2cnc(C3(O)CCCc4cc(C(=O)O)ccc43)s2)c1 (stereo not drawn) [Example 1R, 5-hydroxy-5-[5-(4-methyl-6-{[4-(propan-2-yloxy)pyridin-2-yl]amino}pyridin-2-yl)-1,3-thiazol-2-yl]-5,6,7,8-tetrahydronaphthalene-2-carboxylic acid]
- IC50 [1]: < 500 pM

SMILES: Cc1cc(Nc2cc(-c3nnc(C)o3)ccn2)nc(-c2cnc(C3(O)CCCc4cc(C(=O)O)ccc43)s2)c1 (stereo not drawn) [Example 1S, 5-hydroxy-5-[5-(4-methyl-6-{[4-(5-methyl-1,3,4-oxadiazol-2-yl)pyridin-2-yl]amino}pyridin-2-yl)-1,3-thiazol-2-yl]-5,6,7,8-tetrahydronaphthalene-2-carboxylic acid]
- IC50 [1]: < 500 pM

SMILES: Cc1cc(Nc2cc(OC3CCOC3)ccn2)nc(-c2cnc(C3(O)CCCc4cc(C(=O)O)ccc43)s2)c1 (stereo not drawn) [Example 1T, 5-hydroxy-5-[5-(4-methyl-6-{[4-(tetrahydrofuran-3-yloxy)pyridin-2-yl]amino}pyridin-2-yl)-1,3-thiazol-2-yl]-5,6,7,8-tetrahydronaphthalene-2-carboxylic acid]
- IC50 [1]: < 500 pM

SMILES: Cc1cc(Nc2cc(C3CC3)ccn2)nc(-c2cnc(C3(O)CCCc4cc(C(=O)O)ccc43)s2)c1 (stereo not drawn) [Example 1U, 5-(5-{6-[(4-cyclopropylpyridin-2-yl)amino]-4-methylpyridin-2-yl}-1,3-thiazol-2-yl)-5-hydroxy-5,6,7,8-tetrahydronaphthalene-2-carboxylic acid]
- IC50 [1]: < 500 pM

SMILES: Cc1cc(Nc2cc(C(C)C)ccn2)nc(-c2cnc(C3(O)CCCc4cc(C(=O)O)ccc43)s2)c1 (stereo not drawn) [Example 1V, 5-hydroxy-5-[5-(4-methyl-6-{[4-(1-methylethyl)pyridin-2-yl]amino}pyridin-2-yl)-1,3-thiazol-2-yl]-5,6,7,8-tetrahydronaphthalene-2-carboxylic acid]
- IC50 [1]: < 500 pM

SMILES: Cc1cc(Nc2cc(C(F)(F)F)ccn2)nc(-c2cnc([C@@]3(O)CCCc4cc(C(=O)NS(=O)(=O)C5CC5)ccc43)s2)c1 [Example 22A, (R)-N-(cyclopropylsulfonyl)-5-hydroxy-5-[5-(4-methyl-6-{[4-(trifluoromethyl)pyridin-2-yl]amino}pyridin-2-yl)-1,3-thiazol-2-yl]-5,6,7,8-tetrahydronaphthalene-2-carboxamide]
- IC50 [1]: < 500 pM

SMILES: Cc1cc(Nc2cc(C(F)(F)F)ccn2)nc(-c2cnc([C@@]3(O)CCCc4cc(C(=O)Nc5nnn[nH]5)ccc43)s2)c1 [Example 22E, (R)-5-hydroxy-5-[5-(4-methyl-6-{[4-(trifluoromethyl)pyridin-2-yl]amino}pyridin-2-yl)-1,3-thiazol-2-yl]-N-1H-tetrazol-5-yl-5,6,7,8-tetrahydronaphthalene-2-carboxamide]
- IC50 [1]: < 500 pM

SMILES: Oc1cccc(Nc2ncc(F)c(Nc3cccc(O)c3)n2)c1 [Example R112]
- clinical safety (PGD2): safe across a range of indicators
- decrease in PGD2 (PGD2): statistically significant decrease
- efficacy versus placebo [2]: lack of efficacy
